The source of these data is PMC9897788, “Design, synthesis and cytotoxic evaluation of novel bis-thiazole derivatives as preferential Pim1 kinase inhibitors with in vivo and in silico study” (Journal of Enzyme Inhibition and Medicinal Chemistry, 2023).

Series [1] deals with SW-620. Kind of series: NCI 60 cell one-dose screening (SRB). The format is cell-based. To be noted: Homo sapiens; SW-620, Colon Cancer; single dose 10 µM, 48 h; read-out: Percentage of cellular growth inhibition. In short, it runs like this: (§1)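 Growth percentage, referenced to time-zero and drug-free wells and measured by SRB absorbance (515 nm), was subtracted from 100 to give inhibition. Cells had been pre-grown 24 h, then incubated 48 h at 37 °C, 5% CO2 with test compound at 10 µM final.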

Series [2] deals with SK-MEL-2. The series can be described thus: NCI 60 cell one-dose screening (SRB). In kind it is cell-based. The settings on record: Homo sapiens; SK-MEL-2, Melanoma; single dose 10 µM, 48 h; read-out: Percentage of cellular growth inhibition. In short, it runs like this:
as §1

The subject of series [3] is U251. The series can be described thus: NCI 60 cell one-dose screening (SRB). The format is cell-based. The settings on record: Homo sapiens, U-251; U251, CNS Cancer; single dose 10 µM, 48 h; read-out: Percentage of cellular growth inhibition. The essentials:
as §1

Series [4] concerns M14. The series can be described thus: NCI 60 cell one-dose screening (SRB). The format is cell-based. To be noted: Homo sapiens; M14, Melanoma; single dose 10 µM, 48 h; read-out: Percentage of cellular growth inhibition. The essentials: as §1
Series [5] relates to LOX IMVI. Kind of series: NCI 60 cell one-dose screening (SRB). In kind it is cell-based. To be noted: Homo sapiens, Melanoma, single dose 10 µM, 48 h, read-out: Percentage of cellular growth inhibition. The essentials:
as §1

Series [6] deals with MDA-MB-231/ATCC. The series can be described thus: NCI 60 cell one-dose screening (SRB). The format is cell-based. The settings on record: Homo sapiens, Breast Cancer, single dose 10 µM, 48 h, read-out: Percentage of cellular growth inhibition. In short, it runs like this:
as §1

In series [7] the test system is HCT-116. The series can be described thus: NCI 60 cell one-dose screening (SRB). In kind it is cell-based. The settings on record: Homo sapiens; HCT-116, Colon Cancer; single dose 10 µM, 48 h; read-out: Percentage of cellular growth inhibition. The essentials:
as §1

Series [8] deals with UACC-62. Kind of series: NCI 60 cell one-dose screening (SRB). The format is cell-based. The settings on record: Homo sapiens; UACC-62, Melanoma; single dose 10 µM, 48 h; read-out: Percentage of cellular growth inhibition. The essentials:
as §1

In series [9] the test system is NCI-H460. Kind of series: NCI 60 cell one-dose screening (SRB). The format is cell-based. The settings on record: Homo sapiens; NCI-H460, Non-Small Cell Lung Cancer; single dose 10 µM, 48 h; read-out: Percentage of cellular growth inhibition. In short, it runs like this: as §1
The subject of series [10] is T-47D. The series can be described thus: NCI 60 cell one-dose screening (SRB). To be noted: Homo sapiens, T47D, 48 h, Breast Cancer, single dose 10 µM, read-out: Percentage of cellular growth inhibition. In kind it is cell-based. The essentials: as §1
Series [11] has as its system ACHN. Kind of series: NCI 60 cell one-dose screening (SRB). The format is cell-based. The settings on record: Homo sapiens, Renal Cancer, single dose 10 µM, 48 h, read-out: Percentage of cellular growth inhibition. The essentials:
as §1

Series [12] concerns NCI-H522. Kind of series: NCI 60 cell one-dose screening (SRB). To be noted: Homo sapiens; NCI-H522, Non-Small Cell Lung Cancer; single dose 10 µM, 48 h; read-out: Percentage of cellular growth inhibition. In kind it is cell-based. In short, it runs like this: as §1
The test system of series [13] is DU-145. Kind of series: NCI 60 cell one-dose screening (SRB). In kind it is cell-based. The settings on record: Homo sapiens; DU-145, Prostate Cancer; single dose 10 µM, 48 h; read-out: Percentage of cellular growth inhibition. In short, it runs like this: as §1
Series [14] deals with MCF7. Kind of series: NCI 60 cell one-dose screening (SRB). The format is cell-based. The settings on record: Homo sapiens; MCF7, Breast Cancer; single dose 10 µM, 48 h; read-out: Percentage of cellular growth inhibition. The essentials:
as §1

Series [15] has as its system SR. The series can be described thus: NCI 60 cell one-dose screening (SRB). The format is cell-based. To be noted: Homo sapiens, Leukemia, single dose 10 µM, 48 h, read-out: Percentage of cellular growth inhibition. In short, it runs like this: as §1
In series [16] the test system is SF-295. The series can be described thus: NCI 60 cell one-dose screening (SRB). In kind it is cell-based. To be noted: Homo sapiens; SF-295, CNS Cancer; single dose 10 µM, 48 h; read-out: Percentage of cellular growth inhibition. The essentials: as §1
The subject of series [17] is OVCAR-3. Kind of series: NCI 60 cell one-dose screening (SRB). The settings on record: Homo sapiens; OVCAR-3, Ovarian Cancer; single dose 10 µM, 48 h; read-out: Percentage of cellular growth inhibition. The format is cell-based. The essentials: as §1
For series [18], the system named is HCC-2998. Kind of series: NCI 60 cell one-dose screening (SRB). To be noted: Homo sapiens; HCC-2998, Colon Cancer; single dose 10 µM, 48 h; read-out: Percentage of cellular growth inhibition. The format is cell-based. The essentials:
as §1

Each structure is given as a SMILES string.

As usually defined, the melting point is the temperature of the solid-liquid transition. Usually inhibition stands for the relative decrease from the control value, in per cent.

Take `c1ccc(/N=c2\scc(-c3ccccc3)n2-c2cccc(-n3c(-c4ccccc4)cs/c3=N\c3ccccc3)c2)cc1` [8a, N,N’-(3,3’-(1,3-phenylene)bis(4-phenylthiazole-3(3H)-yl-2(3H)-ylidene))dianiline]: the melting point fell in the range of 110 to 111 °C. Further, the inhibition at 10 µM in series [1] was -0.4%. Also, in [2], the inhibition at 10 µM was determined as 12.6%. Moreover, the inhibition at 10 µM in [3] amounted to 2.7%. Moreover, in series [4], the inhibition at 10 µM was -14.3%. Moreover, in series [5], the inhibition at 10 µM was found to be 22.6%. For the same molecule, in series [6], the inhibition at 10 µM was -4.1%. For the same molecule, the inhibition at 10 µM in [7] was -4.1%. Also, the inhibition at 10 µM in [8] was determined as 20.3%. Besides, the inhibition at 10 µM in series [9] is -6.3%. For the same molecule, in series [10], the inhibition at 10 µM came out at 10.2%. Further, in series [11], the inhibition at 10 µM was 3%. For the same molecule, in series [12], the inhibition at 10 µM came out at 12.2%. Further, in series [13], the inhibition at 10 µM is -3.2%. In addition, in [14], the inhibition at 10 µM came out at 18%. The inhibition at 10 µM in [15] was determined as 6.1%. In addition, the inhibition at 10 µM in series [16] is -22.4%. Moreover, in series [17], the inhibition at 10 µM was -3.6%. Moreover, the inhibition at 10 µM in series [18] is -22.2%.

As for `Clc1ccc(-c2cs/c(=N\c3ccccc3)n2-c2cccc(-n3c(-c4ccc(Cl)cc4)cs/c3=N\c3ccccc3)c2)cc1` [8c, N,N’-(3,3’-(1,3-phenylene)bis(4–(4-chlorophenyl)thiazole-3(3H)-yl-2(3H)-ylidene))dianiline], the melting point lay within 120 to 121 °C. Further, the inhibition at 10 µM in [1] worked out at 36.7%. Also, the inhibition at 10 µM in [2] was -9.6%. Also, the inhibition at 10 µM in [3] was determined as 11.1%. Further, the inhibition at 10 µM in series [4] was -10.7%. Further, the inhibition at 10 µM in series [5] came to 50.6%. For the same molecule, the inhibition at 10 µM in [6] was -4.5%. For the same molecule, in series [7], the inhibition at 10 µM was 15.7%. Moreover, the inhibition at 10 µM in series [8] was 10.5%. In addition, the inhibition at 10 µM in series [9] stood at 0.1%. Besides, the inhibition at 10 µM in series [10] was 8.9%. Further, the inhibition at 10 µM in [11] was -1.5%. Besides, the inhibition at 10 µM in [12] was determined as 42.2%. Further, the inhibition at 10 µM in [13] came out at 19.2%. For the same molecule, the inhibition at 10 µM in series [14] stood at 23.4%. Further, the inhibition at 10 µM in series [15] was determined as 12.1%. Moreover, the inhibition at 10 µM in series [16] was -17.9%. Further, in series [17], the inhibition at 10 µM is -6.6%. Besides, the inhibition at 10 µM in [18] is -1.7%.
